Drawing on patent US4663332A, “5-substituted N-alkylated tetrazoles” (Hoffman-La Roche Inc., priority 1985, dated 1987), this text covers IC50 and inhibition in vivo for seven compounds.

Assay [1] has as its target T1, PAF binding to dog platelets (Canis lupus familiaris, UniProt A0A8I3NSH0).
T1 construct: from tissue; host or cells: washed platelets from citrate-treated dog blood
T1 sequence (A0A8I3NSH0 1-343): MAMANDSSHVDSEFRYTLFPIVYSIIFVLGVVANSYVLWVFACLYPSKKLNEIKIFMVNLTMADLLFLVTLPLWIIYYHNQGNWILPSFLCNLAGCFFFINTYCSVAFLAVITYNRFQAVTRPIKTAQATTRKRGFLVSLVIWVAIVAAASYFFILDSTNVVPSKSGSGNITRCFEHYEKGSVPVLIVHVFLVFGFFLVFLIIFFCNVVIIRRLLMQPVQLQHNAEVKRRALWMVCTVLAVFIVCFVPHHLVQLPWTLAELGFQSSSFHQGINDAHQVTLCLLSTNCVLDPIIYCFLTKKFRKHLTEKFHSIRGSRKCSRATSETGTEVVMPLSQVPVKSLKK
The experiment in a line: PAF Radioreceptor Binding Assay (PAF Binding). The conditions noted are these: inhibition of 3H-PAF binding to dog platelets, 10 min, room temperature. As for the experimental part: (1) PAF Radioreceptor Binding Assay (PAF Binding)
Platelet rich plasma is prepared by centrifugation of citrate-treated dog blood. Acidification to pH 6.5 with 0.15M citric acid and centrifugation for 10 minutes at 1000×g yields a platelet pellet which is then washed by resuspension in EDTA-Phosphate Buffered Saline (PBS) and recentrifuged. The washed platelet preparation is adjusted to 2×10^7 platelets/50 μl in 0.1% bovine serum albumin-PBS.
To a 400 μl microfuge tube containing 50 μl silicone oil (specific gravity 1.023) is added buffer, PAF standard or analog, or an extract to bring the aqueous volume to 150 μl. 50 μl of ^3 H-PAF (10,000 cpm, 45 Ci/mM) is added followed by 2×10^7 dog platelets. After mixing, incubating for 10 minutes at room temperature, and centrifuging for 1 minute in a Beckman Microfuge B (8000×g), the pellet is removed by clipping off the tip of the tube, the platelets are solubilized with 200 μl of 50% methanol and counted in 10 ml of Aquasol. […] Results obtained with representative copounds of the present invention in this assay are summarized hereinafter in Tables I and II. IC50 is drug concentration (μMolar) which inhibits PAF binding to dog platelets by 50%.

For assay [2], the system named is PAF. The experiment in a line: Inhibition of PAF Induced Guinea Pig Bronchoconstriction Test (Inhib. of PAF Broncho.). The format is in vivo, guinea pig (Hartley strain). Particulars: Cavia porcellus, iv; 1 mg/kg i.v. (1 min. pretreat). Here is the method: (3) Inhibition of PAF Induced Guinea Pig Bronchoconstriction Test (Inhib. of PAF Broncho.)
Male guinea pigs (Hartley strain) weighing 300 to 500 g are anesthetized with urethane (2 g/kg) intraperitoneally and a polyethylene cannula is inserted into the jugular vein for drug administration. Tracheal pressure is recorded from a cannula inserted in the trachea and connected to a Statham pressure transducer. Propranolol (0.1 mg/kg) is administered intravenously five minutes before challenge with synthetic PAF, the animal's skeletal muscles are then paralyzed with succinylcholine (1.2 mg/kg i.v.), and the animal is respirated using a Harvard small animal respirator operating at 40 breaths/min and 2.5 cc stroke volume. Under these conditions PAF induces a dose-dependent increase in ventilatory pressure over a dose range of 0.5 to 5 μg/kg i.v. For screening purposes animals are challenged with a single dose of PAF (10 μg/kg i.v.).
The peak increase in ventilatory pressure (cm H2 O) is recorded for three control animals and five drug-treated animals and the percent inhibition determined from the following formula [formula] Results obtained with representative compounds of the invention in this test are summarized hereinafter in Tables I and II.

Molecules are shown by their SMILES.

As usually defined, the IC50 is the concentration needed to halve the response being measured. In turn, `CCCc1c(OCCCCc2nnn(CCc3cccnc3)n2)ccc(C(C)=O)c1O` [4 2 3-pyridyl, 1-[2-Hydroxy-3-propyl-4-[4-[2-[2-(3-pyridinyl)ethyl]-2H-tetrazol-5-yl]butoxy]phenyl]ethanone] yielded an IC50 in assay [1] above 1000 nM.

Take `CCCc1c(OCCCCCc2nnnn2Cc2cccnc2)ccc(C(C)=O)c1O` [H H 5 1 3-pyridyl, 1-[2-Hydroxy-3-propyl-4-[5-[1-(3-pyridinyl)methyl-1H-tetrazol-5-yl]-pentyloxy]phenyl]ethanone]: the IC50 in assay [1] stood at 800 nM.

A word on the inhibition in vivo: it is the drop in the measured response relative to a control, in per cent. With `CCCc1c(OCCCc2nnn(CCCCc3cccnc3)n2)ccc(C(C)=O)c1O` [3 4 3-pyridyl, 1-[2-Hydroxy-3-propyl-4-[3-[2-[4-(3-pyridinyl)butyl]-2H-tetrazol-5-yl]propoxy]phenyl]ethanone], in assay [1], the IC50 amounted to 1000 nM. Further, in assay [2], the inhibition in vivo at 1 mg/kg came out at 38 ± 14%.

For the compound `CCCc1c(OCCCCc2nnn(CCCc3cccnc3)n2)ccc(C(C)=O)c1O` [4 3 3-pyridyl, 1-[2-Hydroxy-3-propyl-4-[4-[2-[3-(3-pyridinyl)propyl]-2H-tetrazol-5-yl]butoxy]phenyl]ethanone], in assay [1], the IC50 is above 1000 nM. Further, the inhibition in vivo at 1 mg/kg in assay [2] was determined as 55 ± 9%.

As to `CCCc1c(OCCCCCc2nnn(Cc3cccnc3)n2)ccc(C(C)=O)c1O` [5 1 3-pyridyl], the IC50 in assay [1] is above 1000 nM.

In assay [1], `CCCc1c(OCCCCc2nnn(CCCn3ccnc3)n2)ccc(C(C)=O)c1O` [4 3 1-imidazolyl, 1-[2-Hydroxy-3-propyl-4-[4-[2-[3-(1H-imidazol-1-yl)propyl]-2H-tetrazol-5-yl]butoxy]phenyl]-ethanone] registered an IC50 above 1000 nM. In addition, in assay [2], the inhibition in vivo at 1 mg/kg was 30 ± 15%.

For the compound `CCCc1c(OCCCc2nnn(CCCc3cccnc3)n2)ccc(C(C)=O)c1O` [3 3 3-pyridyl, 1-[2-hydroxy-3-propyl-4-[3-[2-[3-(3-pyridinyl)propyl]-2H-tetrazol-5-yl]propoxy]phenyl]ethanone], the IC50 in assay [1] is above 1000 nM. For the same compound, the inhibition in vivo at 1 mg/kg in assay [2] amounted to 13 ± 7%.
